In patent US9580604B2, “Pentafluorosulfanyl phthalocyanine derivatives and intermediates thereof” (UBE INDUSTRIES, LTD., priority 2012, dated 2017):

Key:
[1] = UV/Vis spectra in methylene chloride; type: physicochemical; conditions: for coagulation inhibitory effect / suppression of coagulation: in solution, judged from UV/Vis spectrum; for coagulation inhibitory effect / suppression of coagulation / shift of the peak in the Q band: in words; for λ/nm, absorption peak, 1st peak / λ/nm, absorption peak, 2nd peak / λ/nm, absorption peak, 3rd peak / λ/nm, absorption peak, 4th peak / λ/nm, absorption peak, 5th peak / shift of the peak in the Q band: methylene chloride
Description: FIGS. 1 to 4 show the UV/Vis spectra of the inventive phthalocyanine derivatives obtained above in Examples 8 to 11 in methylene chloride.

[2] = fluorescence spectra in methylene chloride; type: physicochemical; conditions: for fluorescence quantum yield, tendency in words: methylene chloride
Description: FIGS. 6 to 9 show the fluorescence spectra of the inventive phthalocyanine derivatives obtained above in Examples 8 to 11 in methylene chloride.

[3] = solubility in an organic solvent (purification by column chromatography); conditions: result in words
[4] = 1.0 × 10^−4 M + Py, broken line
[5] = 1.0 × 10^−4 M, solid line (no pyridine)
[6] = CH2C12, solid line (no pyridine)
[7] = CH2C12—Py, broken line (in the presence of pyridine)

Substance	coagulation inhibitory effect / suppression of coagulation [1]	λ/nm, absorption peak, 1st peak [1, 4] [nm]	λ/nm, absorption peak, 2nd peak [1, 4] [nm]	λ/nm, absorption peak, 3rd peak [1, 4] [nm]	λ/nm, absorption peak, 4th peak [1, 4] [nm]	λ/nm, absorption peak, 5th peak [1, 4] [nm]	λ/nm, absorption peak, 1st peak [1, 5] [nm]	λ/nm, absorption peak, 2nd peak [1, 5] [nm]	λ/nm, absorption peak, 3rd peak [1, 5] [nm]	λ/nm, absorption peak, 4th peak [1, 5] [nm]	λ/nm, absorption peak, 5th peak [1, 5] [nm]	Φf fluorescence quantum yield [2, 6]	λem (nm) [2, 6] [nm]	λem (nm) ([2]; CH2C12—Py, broken line)	Φf fluorescence quantum yield [2, 7]	solubility in an organic solvent [3]	shift of the peak in the Q band [1]	fluorescence quantum yield, tendency in words [2]
tetrakis(pentafluorosulfanyl)zinc phthalocyanine [Example 8]	superior coagulation inhibitory effect	333	363	607	639	671	334	365	607	637	672	0.55	676	676	0.74	–	–	–
trifluoromethyl phthalocyanine [CF3Pc, reference compound]	–	334	371	604	628	669	334	–	–	626	668	0.58	675	674	0.76	too poorly soluble in an organic solvent to be purified by column chromatography	–	–
α-tetrakis(phenoxy)-β-tetrakis(pentafluorosulfanyl)zinc phthalocyanine [Example 10]	–	328	384	624	694	–	326	384	624	694	733	0.26	738	704	0.34	–	significant redshift	decrease in fluorescence quantum yield
α-tetrakis(thiophenoxy)-β-tetrakis(pentafluorosulfanyl)zinc phthalocyanine [Example 11]	–	334	–	406	641	713	333	–	407	641	712	0.24	721	723	0.34	–	significant redshift	decrease in fluorescence quantum yield
α-tetrakis(trifluoromethyl)-β-tetrakis(pentafluorosulfanyl)zinc phthalocyanine [Example 9]	superior in solubility and suppression of coagulation to the phthalocyanine obtained in Example 8	332	380	597	628	659	330	380	598	629	662	0.52	669	667	0.84	–	–	–
